Biological target: T1, RIPK2 enzyme (Homo sapiens, UniProt O43353)
T1 construct: purchased Carna 09-128
Assay: RIPK2 inhibition (ADP-Glo Kinase Assay)
Format: biochemical
Conditions: RIPK2 5 nM, ATP 150 μM, MBP substrate, read-out: RIPK2 IC50
Procedure, shortened: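 Swine MBP substrate; compound and 5 nM RIPK2 first mixed for 30 min at room temperature; buffer pH 7.5 HEPES 50 mM with 10 mM MgCl2, 2 mM DTT, 1 mM EGTA, Brij-35, BSA.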

T1 sequence (O43353 1-299 limits assumed): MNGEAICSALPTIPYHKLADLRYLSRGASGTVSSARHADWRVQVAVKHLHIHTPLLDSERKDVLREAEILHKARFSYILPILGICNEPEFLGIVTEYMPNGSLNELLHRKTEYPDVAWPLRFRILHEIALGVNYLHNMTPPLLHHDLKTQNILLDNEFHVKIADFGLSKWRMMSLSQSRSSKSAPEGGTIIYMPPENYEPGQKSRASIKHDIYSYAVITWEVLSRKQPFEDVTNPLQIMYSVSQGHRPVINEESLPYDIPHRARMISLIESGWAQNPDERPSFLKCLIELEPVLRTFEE

Row | Structure (SMILES) | IC50 [nM]
1 | CN1CCC(Oc2ccc3nccc(Oc4ccc(CC(=O)Nc5cnn(C(C)(C)C)c5)cc4Cl)c3c2)CC1 [Compound 172, N-(1-(tert-butyl)-1H-pyrazol-4-yl)-2-(3-chloro-4-((6-((1-methyl-piperidin-4-yl)oxy)quinolin-4-yl)oxy)phenyl) acetamide] | < 2.5
2 | CCS(=O)(=O)c1ccc2nccc(Oc3ccc(CC(=O)Nc4cnn(C(C)(C)C)c4)c(F)c3C)c2c1 [Compound 173, N-(1-(tert-butyl)-1H-pyrazol-4-yl)-2-(4-((6-(ethylsulfonyl)quinolin-4-yl)oxy)-2-fluoro-3-methylphenyl)acetamide] | < 2.5
3 | Cc1c(Oc2ccnc3ccc(S(C)(=O)=O)cc23)ccc(CC(=O)Nc2cc(C(C)(C)C)n[nH]2)c1F [Compound 175, N-(5-(tert-butyl)-1H-pyrazol-3-yl)-2-(2-fluoro-3-methyl-4-((6-(methylsulfonyl)quinolin-4-yl)oxy)phenyl)acetamide] | < 2.5
4 | Cc1cc(CC(=O)Nc2cnn(C(C)(C)C)c2)ccc1Oc1ncnc2ccc(OC3CCN(CCO)CC3)cc12 [Compound 176] | 4
5 | COCCN1CCC(Oc2ccc3ncnc(Oc4ccc(CC(=O)Nc5cnn(C(C)(C)C)c5)cc4C)c3c2)CC1 [Compound 177, N-(1-(tert-butyl)-1H-pyrazol-4-yl)-2-(4-((6-((1-(2-methoxyethyl)piperidin-4-yl)oxy)quinazolin-4-yl)oxy)-3-methylphenyl) acetamide] | < 2.5
6 | Cc1cc(CC(=O)Nc2cnn(C(C)(C)C)c2)ccc1Oc1ncnc2ccc(OC3CCN(CC(F)F)CC3)cc12 [Compound 178, N-(1-(tert-butyl)-1H-pyrazol-4-yl)-2-(4-((6-((1-(2,2-difluoroethyl)piperidin-4-yl)oxy)quinazolin-4-yl)oxy)-3-methylphenyl) acetamide] | 5
7 | CCP(=O)(CC)c1ccc2nccc(Oc3ccc(CC(=O)Nc4cnn(C(C)(C)C)c4)cc3C)c2c1 [Compound 180, N-(1-(tert-butyl)-1H-pyrazol-4-yl)-2-(4-((6-(diethylphosphoryl)quinolin-4-yl)oxy)-3-methylphenyl) acetamide] | < 2.5
8 | Cc1cc(CC(=O)Nc2cnn(C(C)(C)C)c2)ccc1Oc1ccnc2ccc(P3(=O)CCCC3)cc12 [Compound 181, N-(1-(tert-butyl)-1H-pyrazol-4-yl)-2-(3-methyl-4-((6-(1-oxidophospholan-1-yl)quinolin-4-yl)oxy)phenyl) acetamide] | < 2.5
9 | Cc1cc(CC(=O)Nc2noc(C(C)(C)C)n2)ccc1Oc1ncnc2ccc(OC3CCNCC3)cc12 [Compound 183, N-(5-(tert-butyl)-1,2,4-oxadiazol-3-yl)-2-(3-methyl-4-((6-(piperidin-4-yloxy)quinazolin-4-yl)oxy)phenyl) acetamide] | < 2.5
10 | Cc1cc(CC(=O)Nc2noc(C(C)(C)C)n2)ccc1Oc1ncnc2ccc(OC3CCN(C)CC3)cc12 [Compound 184, N-(5-(tert-butyl)-1,2,4-oxadiazol-3-yl)-2-(3-methyl-4-((6-((1-methylpiperidin-4-yl)oxy)quinazolin-4-yl)oxy)phenyl) acetamide] | 3
11 | Cc1c(Oc2ncnc3ccc(OC4CCN(C)CC4)cc23)ccc(CC(=O)Nc2cc(C(C)(C)C)n[nH]2)c1F [Compound 186, N-(5-(tert-butyl)-1H-pyrazol-3-yl)-2-(2-fluoro-3-methyl-4-((6-((1-methyl-piperidin-4-yl)oxy)quinazolin-4-yl)oxy)phenyl) acetamide] | < 2.5
12 | Cc1cc(CC(=O)Nc2cnn(C(C)(C)C)c2)ccc1Oc1ccnc2ccc(OC[C@@H]3CCNC3)cc12 [Compound 192, (R)-N-(1-(tert-butyl)-1H-pyrazol-4-yl)-2-(3-methyl-4-((6-(pyrrolidin-3-ylmethoxy)quinolin-4-yl)oxy)phenyl) acetamide] | < 2.5
13 | Cc1cc(CC(=O)Nc2cnn(C(C)(C)C)c2)ccc1Oc1ccnc2ccc(OC[C@H]3CCNC3)cc12 [Compound 193, (S)-N-(1-(tert-butyl)-1H-pyrazol-4-yl)-2-(3-methyl-4-((6-(pyrrolidin-3-ylmethoxy)quinolin-4-yl)oxy)phenyl) acetamide] | < 2.5
14 | Cc1cc(CC(=O)Nc2cnn(C(C)(C)C)c2)ccc1Oc1ccnc2ccc(OC[C@@H]3CCCNC3)cc12 [Compound 194, (R)-N-(1-(tert-butyl)-1H-pyrazol-4-yl)-2-(3-methyl-4-((6-(piperidin-3-ylmethoxy)quinolin-4-yl)oxy)phenyl) acetamide] | < 2.5
15 | Cc1cc(CC(=O)Nc2cnn(C(C)(C)C)c2)ccc1Oc1ccnc2ccc(OC[C@H]3CCCNC3)cc12 [Compound 195, (S)-N-(1-(tert-butyl)-1H-pyrazol-4-yl)-2-(3-methyl-4-((6-(piperidin-3-ylmethoxy)quinolin-4-yl)oxy)phenyl) acetamide] | < 2.5
16 | [2H]C([2H])([2H])S(=O)(=O)c1ccc2nccc(Oc3ccc(CC(=O)Nc4cnn(C(C)(C)C)c4)cc3C)c2c1 [Compound 198, N-(1-(tert-butyl)-1H-pyrazol-4-yl)-2-(3-methyl-4-((6-((methyl-d3)sulfonyl)quinolin-4-yl)oxy)phenyl)acetamide] | < 2.5

Row | Structure (SMILES) | IC50 [nM]
17 | Cc1cc(CC(=O)Nc2cnn(C(C)(C)C)c2)ccc1Oc1ccnc2ccc(S(=O)(=O)CCO)cc12 [Compound 203, N-(1-(tert-butyl)-1H-pyrazol-4-yl)-2-(4-((6-((2-hydroxyethyl)sulfonyl)quinolin-4-yl)oxy)-3-methylphenyl)acetamide] | < 2.5
18 | COCCS(=O)(=O)c1ccc2nccc(Oc3ccc(CC(=O)Nc4cnn(C(C)(C)C)c4)cc3C)c2c1 [Compound 204, N-(1-(tert-butyl)-1H-pyrazol-4-yl)-2-(4-((6-((2-methoxyethyl)sulfonyl)quinolin-4-yl)oxy)-3-methylphenyl)acetamide] | < 2.5
19 | Cc1cc(CC(=O)Nc2cnn(C(C)(C)C)c2)ccc1Oc1ccnc2ccc(S(=O)(=O)CC3CC3)cc12 [Compound 205, N-(1-(tert-butyl)-1H-pyrazol-4-yl)-2-(4-((6-((cyclopropylmethyl)sulfonyl)quinolin-4-yl)oxy)-3-methylphenyl)acetamide] | < 2.5
20 | Cc1cc(CC(=O)Nc2cnn(C(C)(C)C)c2)ccc1Oc1ccnc2ccc(S(=O)(=O)C(C)C)cc12 [Compound 206, N-(1-(tert-butyl)-1H-pyrazol-4-yl)-2-(4-((6-(isopropylsulfonyl)quinolin-4-yl)oxy)-3-methylphenyl)acetamide] | < 2.5
21 | Cc1cc(CC(=O)Nc2cnn(C(C)(C)C)c2)ccc1Oc1ccnc2ccc(C(=O)N3CCNCC3)cc12 [Compound 207, N-(1-(tert-butyl)-1H-pyrazol-4-yl)-2-(3-methyl-4-((6-(piperazine-1-carbonyl)quinolin-4-yl)oxy)phenyl) acetamide] | < 2.5
22 | Cc1cc(CC(=O)Nc2cnn(C(C)(C)C)c2)ccc1Oc1ccnc2ccc(C(=O)N3CC(F)C3)cc12 [Compound 208, N-(1-(tert-butyl)-1H-pyrazol-4-yl)-2-(4-((6-(3-fluoro-azetidine-1-carbonyl)quinolin-4-yl)oxy)-3-methyl-phenyl) acetamide] | < 2.5
23 | Cc1cc(CC(=O)Nc2cnn(C(C)(C)C)c2)ccc1Oc1ccnc2ccc(C(=O)N3CC(C#N)C3)cc12 [Compound 209, N-(1-(tert-butyl)-1H-pyrazol-4-yl)-2-(4-((6-(3-cyano-azetidine-1-carbonyl)quinolin-4-yl)oxy)-3-methyl-phenyl) acetamide] | < 2.5
24 | Cc1cc(CC(=O)Nc2cnn(C(C)(C)C)c2)ccc1Oc1ccnc2ccc(C(=O)N3CCCC3)cc12 [Compound 210, N-(1-(tert-butyl)-1H-pyrazol-4-yl)-2-(3-methyl-4-((6-(pyrrolidine-1-carbonyl)quinolin-4-yl)oxy)phenyl) acetamide] | < 2.5
25 | Cc1cc(CC(=O)Nc2cnn(C(C)(C)C)c2)ccc1Oc1ccnc2ccc(OC3CC4(CNC4)C3)cc12 [Compound 211, 2-(4-((6-((2-azaspiro[3.3]heptan-6-yl)oxy)quinolin-4-yl)oxy)-3-methyl-phenyl)-N-(1-(tert-butyl)-1H-pyrazol-4-yl)acetamide] | < 2.5
26 | Cc1cc(CC(=O)Nc2cnn(C(C)C)c2)ccc1Oc1ccnc2ccc(S(C)(=O)=O)cc12 [Compound 212, N-(1-isopropyl-1H-pyrazol-4-yl)-2-(3-methyl-4-((6-(methylsulfonyl)quinolin-4-yl)oxy)phenyl)acetamide] | < 2.5
27 | Cc1cc(CC(=O)Nc2cnn(C3CCC3)c2)ccc1Oc1ccnc2ccc(S(C)(=O)=O)cc12 [Compound 213, N-(1-cyclobutyl-1H-pyrazol-4-yl)-2-(3-methyl-4-((6-(methylsulfonyl)quinolin-4-yl)oxy)phenyl)acetamide] | < 2.5
28 | Cc1cc(CC(=O)Nc2cnn(C3CCCC3)c2)ccc1Oc1ccnc2ccc(S(C)(=O)=O)cc12 [Compound 214, N-(1-cyclopentyl-1H-pyrazol-4-yl)-2-(3-methyl-4-((6-(methylsulfonyl)quinolin-4-yl)oxy)phenyl)acetamide] | < 2.5
29 | COc1cc2nccc(Oc3ccc(CC(=O)Nc4cnn(C(C)(C)C)c4)cc3C)c2cc1S(C)(=O)=O [Compound 216, N-(1-(tert-butyl)-1H-pyrazol-4-yl)-2-(4-((7-methoxy-6-(methylsulfonyl)quinolin-4-yl)oxy)-3-methylphenyl) acetamide] | < 2.5
30 | CCOc1cc2nccc(Oc3ccc(CC(=O)Nc4cnn(C(C)(C)C)c4)cc3C)c2cc1S(C)(=O)=O [Compound 217, N-(1-(tert-butyl)-1H-pyrazol-4-yl)-2-(4-((7-ethoxy-6-(methylsulfonyl)quinolin-4-yl)oxy)-3-methylphenyl) acetamide] | < 2.5
31 | Cc1cc(CC(=O)Nc2cnn(C(C)(C)C)c2)ccc1Oc1ccnc2cc(OC(F)F)c(S(C)(=O)=O)cc12 [Compound 218, N-(1-(tert-butyl)-1H-pyrazol-4-yl)-2-(4-((7-(difluoromethoxy)-6-(methylsulfonyl)quinolin-4-yl)oxy)-3-methylphenyl) acetamide] | < 2.5
